According to patent US20220054425A1, “NANOCAPSULES COATED WITH CHITOSAN AND USE THEREOF” (SKINMED CO., LTD., priority 2018, published 2022):

Assay: Skin permeability, Franz diffusion cell system
Type: in vitro ADME
Settings: human cadaver skin, fluorescence, up to 24 hours
From the text: In a Franz diffusion cell system, a formulation including a drug is applied to a donor chamber while a receptor chamber is filled with physiological saline such as PBS (phosphate buffered saline), with a permeable layer, such as a permeable membrane, animal skin or cell culture skin, fixed between the donor chamber and the receptor chamber. Skin permeability can be determined by measuring the amount of the drug diffusing from the donor chamber to the receptor chamber.
In a Franz diffusion cell system, 5 ml of PBS (pH 7.4 containing 0.05% polysorbate 80) was added to the receptor chamber, a human cadaver skin with a size of 1.5×1.5 cm was fixed between the receptor chamber and the donor chamber, and each sample was placed in a donor chamber. The conditions of 37° C. and 600 rpm were set in the receptor chamber and 500 μl of the sample was recovered each time at sample times of 0.5, 1, 2, 4, 8, 12, 18, and 24 hours. The drug passing through the skin was quantitated according to time by HPLC. The result is depicted in FIG. 18.
To a donor chamber, chitosan-coated nanocapsules containing 2 wt % of Nile red (Nile red@ChiNC) were added in an amount of 2 mg/ml. As a control, Nile red alone, or Nile red-containing nanocapsules without a chitosan coating (Nile red@PluNC) were employed. […] Fluorescence in the samples taken at the predetermined times was measured. […]

skin permeability of Nile red: almost did not penetrate into the skin
Compound: CCN(CC)c1ccc2nc3c4ccccc4c(=O)cc-3oc2c1 [Nile red]
